From US20260026495A1, “STABLE PLASMIN COMPOSITIONS FOR ORGAN PRESERVATION AND RECONDITIONING” (Grifols Worldwide Operations Limited, priority 2022, published 2026)

Key:
plasmin = assay: Plasmin proteolytic activity in presence of TXA, S-2403 chromogenic substrate; type: biochemical, human; details: plasmin 1 mg/mL; TXA 0.001 mM to 100 mM; FIG. 3
Text: S-2403 is a commercially available, plasmin specific chromogenic substrate.

[1] = Plasmin activity after storage, S-2403 chromogenic substrate; type: biochemical; details: plasmin 1 mg/mL stored at 0° C. over a 24-hour period; FIG. 4A
Protocol: To assess the compatibility of plasmin as an additive in Cold Storage Solutions, the activity of plasmin at a concentration of 1 mg/mL was assessed at multiple time points whilst stored at 0° C.
(white bars), 25° C. (black bars), or 37° C. (striped bars) for a 24 hour period. The commercial S-2403 plasmin specific chromogenic substrate was used to assess activity at each of the indicated times.
Significant plasmin activity is maintained when formulated with these excipients and diluted into organ preservation and reconditioning solutions. The commercial […] plasmin specific chromogenic substrate was used to assess activity at each of the indicated times.

NC[C@H]1CC[C@H](C(=O)O)CC1 [TXA, tranexamic acid]
proteolytic activity of plasmin (kinetics) (plasmin): unaltered kinetics

plasmin
plasmin activity (kinetics) during storage [1]: unaltered kinetics
